Data on 3 compounds can be found in patent US10927136B2, “Phosphorus prodrugs of pyrazolo-substituted pyrimidine sGC stimulators” (Cyclerion Therapeutics, Inc., priority 2016, dated 2021).

A short description of data set [1]: Ex-vivo rat intestinal fluid stability assay. Also noted: half-life: dose or concentration left out as unconfirmed. Conditions: 37° C.; for prodrug converted into its parent drug / cleaved: after 60 minutes of incubation; for half-life: rat intestinal (jejunum) fluid, read-out: disappearance half-life (T1/2). It is filed as in vitro ADME. Here is the method:
Phosphate prodrugs disclosed herein were designed to be cleaved by alkaline phosphatase(s) that are present on the apical brush-border membranes of the intestine, after which the more hydrophobic parent compound is readily absorbed. Phosphatases are also present in the liver and in the systemic circulation. In order to test the speed of cleavage of the prodrug into the parent drug, […] solutions of each of the test compounds were incubated in rat intestinal (jejunum) fluid. Samples were taken at times=0, 5, 15, 30 and 60 min and the mixtures were quenched by the addition of acetonitrile containing an internal standard. Samples were analyzed by full scan LC/MS. The following protocol was used:
10 mM DMSO stock solutions were thawed or prepared for the positive control (Enalapril) and each test article. Internal standard (IS) crash solution in acetonitrile (ACN) with 20 ng/ml of Compound Z, depicted below, was prepared. Stock (250 uM) was prepared from 10 mM in 50/50 acetonitrile/H2O. Rat intestinal fluid vials were thawed in a water bath at rt.
In a 96-well, 1 ml plate, 48 uL of rat intestinal fluid was aliquoted in triplicate for each time point. The t0 (“0 min”) time point was prepared separately by adding 450 ul of IS crash solution to 48 ul of intestinal fluid, then adding 2 uL of test compound. 2 ul of the 250 uM substock was added to initiate the reaction at 5 min, 15 min, 30 min, and 60 min. The plate prepared in the above steps was covered with a plastic or foil seal and was set in the 37° C. incubator, lightly shaking. For each time point, 450 ul of IS crash solution was added to quench the reaction. The plates were centrifuged at 4000 RPM for 10 minutes at 4° C. 50 ul of supernatant was transferred into 50 ul of H2O and analyzed using LC/MS.
The disappearance of the prodrug and the conversion to the parent were monitored over time.

Data set [2] is described as follows: Dog PK following IV and oral dosing. Type of data set: in vivo, male Beagle dogs. Set-up: half-life / clearance / AUC(0-inf): dose or concentration left out as unconfirmed. Here is the method: PK in dogs was determined following IV and oral dosing.
For the oral (PO) experiments, two groups of 5 male Beagle dogs each were used. […] IV doses were administered through an indwelling catheter in the cephalic vein. Following dose administration, the catheter was flushed with ca. 3 mL of saline. Oral suspension doses were delivered to the stomach using a syringe and gavage tube. Following oral dosage administration, the gavage tube was flushed with approximately 10 mL of water to ensure complete delivery of the full dose.
Plasma and urine samples were collected as follows: for the PO experiments, samples were collected at 15 min, 30 min, 1 hour, 2 hours, 3 hours, 4 hours, 6 hours, 8 hours, 24 hours, 32 hours and 48 hours post-dosing; for the IV experiments, samples were collected at 2 min, 5 min, 15 min, 30 min, 1 hour, 2 hours, 3 hours, 4 hours, 6 hours, 8 hours, 24 hours, 32 hours and 48 hours post-dosing. Blood samples (2 mL) were collected from the jugular, cephalic or saphenous veins. These samples were kept on ice until processed for plasma. Blood samples were centrifuged at 3200 rpm for 10 minutes at approximately 5° C. within 1 hour of collection. Plasma was split into two approximately equal aliquots, and directly transferred to a 96-well plate tube (1.1 mL). Plug caps were placed on the tubes and the tubes frozen at approximately −70° C. and stored until analysis.
Urine was collected from each animal by diversion from a urine collection pan placed beneath the cage of each animal into an appropriate collection container, surrounded by wet ice or ice packs throughout the collection. The total volume of urine collected at each interval was measured and recorded and a single 10 mL aliquot was collected and stored frozen at approximately −70° C. until analysis.
Plasma and urine were collected and analyzed for the presence of Compound I-1 and Intermediate 3 derived from Compound I-1.
Intermediate 3, Compound I-1 and the internal standard (IS, Compound Z) were extracted from plasma by precipitation. Samples were analyzed using liquid chromatography (LC) with tandem mass spectrometric detection (MS/MS) using electrospray ionization. The standard curve range was from 0.1 to 400 ng/mL.
Thawed plasma samples and the required amount of plasma for standards, blanks and dilutions. Prepared crash solution: room temp ACN containing 1 ng/mL Compound Z as Internal Standard. Created a 1× mixed (Intermediate 3 and Compound I-1) standard curve by diluting the 100× stocks (5 uL of each 100× standard into 490 uL of plasma). Transferred 50 uL of each plasma sample/dilution, standard, or blank. Added 200 uL of the crash solution containing IS. Vortexed for 5 minutes. Centrifuged at 16,000 g at room temperature for 10 min. Transferred 200 uL of each supernatant to a plate. Dried under nitrogen in a TurboVap at 55° C. Resuspended each sample in 50 uL of 0.1% Formic Acid, covered and vortexed. Analyzed by LC-MS/MS.

Setting [3] is: male, Beagle, plasma, dog, Compound I-1 0.36 mpk IV in PBS, analyte Compound I-1.
The mark [4] stands for this setting: male, Beagle, plasma, dog PO, Intermediate 3 in PEG400 capsules (2 mg/kg).

Consider `O=P(O)(O)OC(CNc1nc(-c2cc(-c3ccon3)n(Cc3ccccc3F)n2)ncc1F)(C(F)(F)F)C(F)(F)F` [Compound I-1], for which the “prodrug converted into its parent drug” value in data set [1] (after 30 minutes of incubation) is recorded as “About 80%”. In data set [1], the “prodrug converted into its parent drug / cleaved” value is “about 95%” and the half-life amounted to 16 min. In addition, the “Vol. of Dist” value in data set [2] (dog, Compound I-1 0.36 mpk IV in PBS, analyte Compound I-1) was found to be 0.09 ± 0.03 L/kg. In data set [2] (dog, Compound I-1 administered IV), the “average conversion to the parent” value was 95%. Further, the “AUC compared with parent dosed in PEG” value in data set [2] (dog, Compound I-1 dosed IV in PBS) is “comparable AUC to Intermediate 3”. Further, in data set [2] (dog, after PO administration of Compound I-1), the “prodrug observed in plasma” value was “Low levels”. Also, the “prodrug found in urine” value in data set [2] (dog, after dosing of Compound I-1) was “Negligible amounts”. Also, in data set [2] (male, Beagle, dog, plasma, iv, Compound I-1 IV in PBS, analyte Compound I-1), the half-life is ~15 min. Further, in data set [2] (setting [3]), the AUC(0-inf) is 1550 ± 601 ng·h/mL, the Cmax turned out to be 5110 ± 2150 ng/mL and the clearance stood at 8.3 ± 3.1 mL/min/kg.

As to `O=P(O)(O)OCOC(CNc1nc(-c2cc(-c3ccon3)n(Cc3ccccc3F)n2)ncc1F)(C(F)(F)F)C(F)(F)F` [Compound I-4], in data set [1], the “prodrug converted into its parent drug / cleaved” value is given as “More than 99%” and the half-life amounted to 9 min.

For the compound `OC(CNc1nc(-c2cc(-c3ccon3)n(Cc3ccccc3F)n2)ncc1F)(C(F)(F)F)C(F)(F)F` [Intermediate 3], in data set [2] (dog PO, Intermediate 3 in PEG400 capsules (2 mg/kg)), the “Cmax/C24 (ratio)” value was 3.6 ± 1.1 ratio. Moreover, in data set [2] (setting [4]), the AUC was 5190 ± 1410 ng·h/mL, the concentration peaked (Cmax) at 307 ± 116 ng/mL and the Tmax amounted to 90 ± 72 min. The bioavailability in data set [2] (male, Beagle, plasma, dog PO, Intermediate 3 in PEG400 capsules (2 mg/kg), read-out: Bioavailability (% F)) was 64 ± 12.5%.
